{
  "source": "patent US6255273A",
  "about": "“Hydrofluoropolyether-based azeotropic or near azeotropic compositions” (Ausimont S.p.A., priority 1998, dated 2001)",
  "key": {"[1]": {"experiment": "evaluation of the boiling temperature at the pressure of 1.013 bar (binary mixtures)", "format": "physicochemical"}, "[2]": {"experiment": "Hydrofluoropolyether chemical-physical characteristics (Table 1)", "format": "physicochemical", "conditions": "for BOILING TEMPERATURE / Evaporation latent heat: at 1.013 bar; for Isotherm evaporation speed / Surface pressure: at 20° C.; for Liquid density: at 25° C.; for Flammability in air: in air (% volume)"}, "rats [3]": {"tested_on": "rats", "experiment": "Acute toxicity in rats per os", "format": "in vivo", "set-up": "unit not given here"}, "rats [4]": {"tested_on": "rats", "experiment": "Acute toxicity in rats by inhalation", "format": "in vivo", "conditions": "4 hours"}, "[5]": {"conditions": "background; cited from earlier work"}, "[6]": {"experiment": "Kauri-butanol index, modified ASTM D1133-86", "format": "physicochemical", "description": "The solvent effect of the HFPE-based mixtures is evaluated by determination of the Kauri-butanol index, reported in Table 19, according to ASTM […]-86 method. […] The Kauri-butanol solution is stirred by a magnetic stirrer. The end titration point is identified in connection with a diffused turbidity which appears in the Kauri-butanol solution due to the resin separation."}, "[7]": {"experiment": "oily product removal from molded circuits, oil (1)", "conditions": "23° C.; methyl alcohol mixture 51° C., tDCE mixture 25° C., acetone mixture 66° C.; 5 min dipping", "procedure": "(§1) The oily product removal capacity from molded circuits has been verified according to the following method: a known amount of an oily product is uniformly spread on the molded circuit surface having 35×19 mm sizes; 0.100 g of oil are spread on a single surface of the circuit, then the article is dipped in the solution to be tested.\n(§2) After 5 minutes of dipping, the circuit is allowed to drie for further 5 minutes at room temperature so as to remove the solvent traces and then it is weighed again on an analytical balance.\n(§3) The following oily products have been used:\n1) Alkyl Benzene-Zerice S 46 oil by ESSO\n(§4) Tests are carried out at room temperature (23-250° C.) and tests at the boiling temperature of the solvent mixtures. In the latter case the solvent is placed in a vessel equipped with a refrigerant under reflux which recovers the vapour of the boiling solution.\n(§5) In all the tests 30 ml of solvent solution have been used."}, "[8]": {"experiment": "oily product removal from molded circuits, oil (2)", "conditions": "23° C.; methyl alcohol mixture 51° C., tDCE mixture 25° C., acetone mixture 66° C.; 5 min dipping", "procedure": "as §1, §2, §3, §4, §5"}, "[9]": {"experiment": "oily product removal from molded circuits, oil (3)", "conditions": "23° C.; methyl alcohol mixture 51° C., tDCE mixture 25° C., acetone mixture 66° C.; 5 min dipping", "procedure": "as §1, §2, §3\n3) Ester-Icematic SW 100 oil by CASTROL\nas §4, §5"}, "[10]": {"experiment": "oily product removal from molded circuits, oil (4)", "conditions": "23° C.; methyl alcohol mixture 51° C., tDCE mixture 25° C., acetone mixture 66° C.; 5 min dipping", "procedure": "as §1, §2, §3\n4) Mineral-Clavus 32 oil by SHELL.\nas §4, §5"}, "[11]": {"experiment": "water removal from glass surfaces", "conditions": "with 600 ppm by weight surfactant; CFC 113 42° C., HCFC123 mixture 23° C., tDCE mixture 35° C.", "procedure": "In a cylindrical container having a 46 cm diameter and a 56 cm height, equipped with a neoprene closing stopper (cover), 30 ml of the solution to be tested are introduced.\nThe compositions, indicated in Table 22, used for the water removal tests are prepared in a 50 ml flask and are heated in a thermostatic bath at a temperature of about 5° C. lower than the boiling temperature of the solution itself.\nAfter heating the solution is transferred in the test container equipped with cover.\nOn a glass surface having 37×25×1 mm sizes, 0.015 g of water are deposited in the form of small drops.\nThe glass is placed on a metal frame which is used to carry out the article dipping in the liquid phase of the solution to be tested.\nThe container for the test is opened and the frame is slowly dipped into the solution; the frame upper part runs in a hole made in the rubber cover (cap) which closes the container.\nWhen two minutes have elapsed, the frame is lifted from the liquid phase, by letting run the external end part through the hole present in the cover (cap); the glass will remain exposed to the solution vapours for one minute, then it is removed from the container and weighed."}, "[12]": {"conditions": "Table 13, HCF2 OCF2 CF2 OCF2 H/methyl alcohol, number in label = % by wt. HCF2 OCF2 CF2 OCF2 H"}, "[13]": {"conditions": "Table 10, HCF2 OCF2 OCF2 H/tDCE, number in label = % by wt. HCF2 OCF2 OCF2 H"}, "[14]": {"conditions": "Table 15, HCF2 OCF2 CF2 OCF2 H/tDCE, number in label = % by wt. HCF2 OCF2 CF2 OCF2 H"}, "[15]": {"conditions": "Table 8, HCF2 OCF2 OCF2 H/metoxymethyl methyl ether, number in label = % by wt. HCF2 OCF2 OCF2 H"}, "[16]": {"conditions": "Table 16, HCF2 OCF2 CF2 OCF2 H/ethyl alcohol, number in label = % by wt. HCF2 OCF2 CF2 OCF2 H"}, "[17]": {"conditions": "Table 6, HCF2 OCF2 OCF2 H/HFC 365 mfc, number in label = % by wt. HCF2 OCF2 OCF2 H"}, "[18]": {"conditions": "Table 2, HCF2 OCF2 OCF2 H/HCFC 123, number in label = % by wt. HCF2 OCF2 OCF2 H"}, "[19]": {"conditions": "Table 5, HCF2 OCF2 OCF2 H/acetone, number in label = % by wt. HCF2 OCF2 OCF2 H"}, "[20]": {"conditions": "Table 7, HCF2 OCF2 OCF2 H/HFC 356 ffa, number in label = % by wt. HCF2 OCF2 OCF2 H"}, "[21]": {"conditions": "Table 12, HCF2 OCF2 CF2 OCF2 H/acetone, number in label = % by wt. HCF2 OCF2 CF2 OCF2 H"}},
  "data": [
    {"smiles": "CO", "note": "[methyl alcohol, reference compound]", "values": [
      {"measurement": "BOILING TEMPERATURE", "setting": "[1]; [12]", "value": 65.00, "unit": "°C"}
    ]},
    {"smiles": "Cl/C=C/Cl", "note": "[tDCE, trans 1,2-dichloroethylene, reference compound]", "values": [
      {"measurement": "BOILING TEMPERATURE", "setting": "[1]; [13]", "value": 46.70, "unit": "°C"},
      {"measurement": "BOILING TEMPERATURE", "setting": "[1]; [14]", "value": 46.79, "unit": "°C"}
    ]},
    {"smiles": "COCOC", "note": "[metoxymethyl methyl ether, methoxymethyl methyl ether, reference compound]", "values": [
      {"measurement": "BOILING TEMPERATURE", "setting": "[1]; [15]", "value": 41.96, "unit": "°C"}
    ]},
    {"smiles": "CCO", "note": "[ethyl alcohol, reference compound]", "values": [
      {"measurement": "BOILING TEMPERATURE", "setting": "[1]; [16]", "value": 78.50, "unit": "°C"}
    ]},
    {"smiles": "CC(F)(F)CC(F)(F)F", "note": "[HFC 365 mfc, 1,1,1,3,3-pentafluorobutane, reference compound]", "values": [
      {"measurement": "BOILING TEMPERATURE", "setting": "[1]; [17]", "value": 40.09, "unit": "°C"}
    ]},
    {"smiles": "FC(F)OC(F)(F)OC(F)F", "note": "[HFPE1, difluoromethoxy-bis(difluoromethyl ether)]", "values": [
      {"measurement": "BOILING TEMPERATURE", "setting": "[1]; [18]", "value": 35.39, "unit": "°C"},
      {"measurement": "BOILING TEMPERATURE", "setting": "[1]; Table 3, HCF2 OCF2 OCF2 H/n-pentane, number in label = % by weight HCF2 OCF2 OCF2 H", "value": 35.39, "unit": "°C"},
      {"measurement": "BOILING TEMPERATURE", "setting": "[1]; Table 4, HCF2 OCF2 OCF2 H/iso-pentane, number in label = % by wt. HCF2 OCF2 OCF2 H", "value": 35.39, "unit": "°C"},
      {"measurement": "BOILING TEMPERATURE", "setting": "[1]; [19]", "value": 35.39, "unit": "°C"},
      {"measurement": "BOILING TEMPERATURE", "setting": "[1]; [17]", "value": 35.39, "unit": "°C"},
      {"measurement": "BOILING TEMPERATURE", "setting": "[1]; [20]", "value": 35.39, "unit": "°C"},
      {"measurement": "BOILING TEMPERATURE", "setting": "[1]; [15]", "value": 35.39, "unit": "°C"},
      {"measurement": "BOILING TEMPERATURE", "setting": "[1]; Table 9, HCF2 OCF2 OCF2 H/n-hexane, number in label = % by wt. HCF2 OCF2 OCF2 H", "value": 35.39, "unit": "°C"},
      {"measurement": "BOILING TEMPERATURE", "setting": "[1]; [13]", "value": 35.39, "unit": "°C"},
      {"measurement": "BOILING TEMPERATURE", "setting": "[2]", "value": 35.39, "unit": "°C"},
      {"measurement": "Evaporation latent heat", "setting": "[2]", "value": 165, "unit": "kJ/kg"},
      {"measurement": "Isotherm evaporation speed", "setting": "[2]", "value": 1.5, "unit": "mg/min"},
      {"measurement": "Surface pressure", "setting": "[2]", "value": 14.0, "unit": "dynes/cm"},
      {"measurement": "Liquid density", "setting": "[2]", "value": 1.54, "unit": "g/mL"},
      {"measurement": "Flammability in air", "setting": "[2]", "value": "non flammable"},
      {"measurement": "Acute toxicity in rats per os, LD50", "setting": "rats [3]", "value": "> 5000"},
      {"measurement": "Acute toxicity in rats by inhalation, LC50", "setting": "rats [4]", "value": "> 32000", "unit": "ppmv/4 hours"}
    ]},
    {"smiles": "FC(F)(F)C(Cl)Cl", "note": "[HCFC 123, 1,1-dichloro-2,2,2-trifluoroethane, reference compound]", "values": [
      {"measurement": "BOILING TEMPERATURE", "setting": "[1]; [18]", "value": 27.54, "unit": "°C"}
    ]},
    {"smiles": "FC(F)OC(F)(F)C(F)(F)OC(F)F", "note": "[HFPE2, 1-difluoromethoxy-1,1,2,2-tetrafluoroethyl difluoromethyl ether]", "values": [
      {"measurement": "BOILING TEMPERATURE", "setting": "[1]; Table 11, HCF2 OCF2 CF2 OCF2 H/n-pentane, number in label = % by wt. HCF2 OCF2 CF2 OCF2 H", "value": 58.21, "unit": "°C"},
      {"measurement": "BOILING TEMPERATURE", "setting": "[1]; [21]", "value": 58.21, "unit": "°C"},
      {"measurement": "BOILING TEMPERATURE", "setting": "[1]; [12]", "value": 58.21, "unit": "°C"},
      {"measurement": "BOILING TEMPERATURE", "setting": "[1]; Table 14, HCF2 OCF2 CF2 OCF2 H/n-hexane, number in label = % by wt. HCF2 OCF2 CF2 OCF2 H", "value": 58.21, "unit": "°C"},
      {"measurement": "BOILING TEMPERATURE", "setting": "[1]; [14]", "value": 58.21, "unit": "°C"},
      {"measurement": "BOILING TEMPERATURE", "setting": "[1]; [16]", "value": 58.21, "unit": "°C"},
      {"measurement": "BOILING TEMPERATURE", "setting": "[2]", "value": 58.21, "unit": "°C"},
      {"measurement": "Evaporation latent heat", "setting": "[2]", "value": 139, "unit": "kJ/kg"},
      {"measurement": "Isotherm evaporation speed", "setting": "[2]", "value": 0.6, "unit": "mg/min"},
      {"measurement": "Surface pressure", "setting": "[2]", "value": 15.5, "unit": "dynes/cm"},
      {"measurement": "Liquid density", "setting": "[2]", "value": 1.60, "unit": "g/mL"},
      {"measurement": "Flammability in air", "setting": "[2]", "value": "non flammable"},
      {"measurement": "Acute toxicity in rats per os, LD50", "setting": "rats [3]", "value": "> 5000"},
      {"measurement": "Acute toxicity in rats by inhalation, LC50", "setting": "rats [4]", "value": "> 32000", "unit": "ppmv/4 hours"}
    ]},
    {"smiles": "FC(F)(F)CCC(F)(F)F", "note": "[HFC 356 ffa, 1,1,1,4,4,4-hexafluorobutane, reference compound]", "values": [
      {"measurement": "BOILING TEMPERATURE", "setting": "[1]; [20]", "value": 24.71, "unit": "°C"}
    ]},
    {"smiles": "CC(F)(Cl)Cl", "note": "[HCFC 141b]", "values": [
      {"measurement": "flammability", "setting": "[5]", "value": "moderately flammable"}
    ]},
    {"smiles": "CC(C)=O", "note": "[acetone, dimethyl ketone, reference compound]", "values": [
      {"measurement": "BOILING TEMPERATURE", "setting": "[1]; [19]", "value": 56.50, "unit": "°C"},
      {"measurement": "BOILING TEMPERATURE", "setting": "[1]; [21]", "value": 56.50, "unit": "°C"}
    ]},
    {"smiles": "FC(F)(Cl)C(F)(Cl)Cl", "note": "[CFC 113, 1,1,2-trichloro-1,2,2-trifluoroethane]", "values": [
      {"measurement": "BOILING TEMPERATURE", "setting": "[2]", "value": 47.55, "unit": "°C"},
      {"measurement": "Evaporation latent heat", "setting": "[2]", "value": 144, "unit": "kJ/kg"},
      {"measurement": "Isotherm evaporation speed", "setting": "[2]", "value": 1, "unit": "mg/min"},
      {"measurement": "Surface pressure", "setting": "[2]", "value": 18.1, "unit": "dynes/cm"},
      {"measurement": "Liquid density", "setting": "[2]", "value": 1.56, "unit": "g/mL"},
      {"measurement": "Flammability in air", "setting": "[2]", "value": "non"},
      {"measurement": "Acute toxicity in rats by inhalation, LC50", "setting": "rats [4]", "value": 50000, "unit": "ppmv/4 hours"},
      {"measurement": "Kauri-butanol index", "setting": "[6]", "value": 31},
      {"measurement": "Percentage of removed oil, oil (1) Alkyl Benzene-Zerice S 46", "setting": "[7]", "value": 100, "unit": "% by weight"},
      {"measurement": "Percentage of removed oil, oil (2) FluoroSilicone-FS 1265", "setting": "[8]", "value": 99.5, "unit": "% by weight"},
      {"measurement": "Percentage of removed oil, oil (3) Ester-Icematic SW 100", "setting": "[9]", "value": 100, "unit": "% by weight"},
      {"measurement": "Percentage of removed oil, oil (4) Mineral-Clavus 32", "setting": "[10]", "value": 100, "unit": "% by weight"},
      {"measurement": "removed water", "setting": "[11]", "value": 100, "unit": "% by weight"},
      {"measurement": "flammability", "setting": "[5]", "value": "non flammable"},
      {"measurement": "stability", "setting": "[5]", "value": "stable"},
      {"measurement": "toxicity", "setting": "[5]", "value": "non toxic"}
    ]}
  ]
}
